Experimental data reported in patent publication US6664241B2, “Water-soluble amide derivatives of polyene macrolides and preparation and uses thereof” (Micrologix Biotech Inc., priority 2000, dated 2003).
In brackets after ≈: the same amount, converted by molar mass.

Tests used:
[1] = Maximum non-lethal dose (NLD), single intravenous dose in mice; type: in vivo, Swiss-Webster male mice; details: test compounds as aspartate salts in 5% mannitol, AmB as FUNGIZONE
Description: (§1) A variety of the compounds synthesized as described in Section 5, supra, were tested in various in vivo assays, as described below. The results of the various assays are provided in TABLE 3, presented at the end of this section. In all of the in vivo assays described, the test compounds, in the form of the aspartate salts, were formulated in an aqueous vehicle (5% mannitol in sterile water; OSMITROL, Baxter Healthcare, Deerfield, Ill.), followed by appropriate dilutions. The formulations were prepared fresh before dosing.
(§2) AmB and AME were also tested for comparison. For AmB, the commercially available FUNGIZONE (Bristol-Meyers Squibb Co.) was used. Reported values are based upon the weight of the AmB active ingredient, not on the basis of the weight of the FUNGIZONE powder. AME was formulated in OSMITROL as described for the test compounds.
Maximum non-lethal dose (NLD) data were obtained for selected compounds. A single intravenous dose was administered to each of four mice (Swiss-Webster male mice; Simonsen Laboratories, Gilroy, Calif.) in several groups. The doses selected were based upon the NLDs of compounds of similar structures. After review of findings, higher or lower doses were administered and a NLD was determined. The results are tabulated in TABLE 3, below (NLD Acute Mice). The values for AmB and AME are provided for comparison

C. albicans [2] = assay: Minimum Inhibitory Concentrations (MICs) against C. albicans, NCCLS M27-A broth dilution; type: cell-based; details: Candida albicans, read-out: MIC
Description: For each compound synthesized, Minimum Inhibitory Concentrations (MICs) against C. albicans were determined as described in Reference Method for Broth Dilution Antifungal Susceptibility Testing of Yeasts, Approved Standard, NCCLS document M27-A (ISBN 1-56238-328-0), NCCLS, 940 West Valley Road, Suite 1400, Wayne, Pa. 19087, 1997.

C. albicans [3] = assay: 5 day kidney bioburden evaluation in immunocompetent mice challenged with C. albicans; type: in vivo, Swiss-Webster mice; details: Candida albicans, ip, 120 h; intraperitoneally once daily for 5 days, immunocompetent mice, C. albicans; 50% of animals with 2 log10 reduction in kidney CFU; read-out: ED50 mice 5 day
Description: as §1, §2
Various polyene macrolide amide derivatives of the invention were evaluated for their protective effect when administered intraperitoneally once daily for 5 days to immunocompetent mice challenged with live C. albicans.
C. albicans was grown on Sabouraud dextrose agar (SDA) plates for 48 hr. Colonies were harvested and washed twice by centrifugation in phosphate-buffered saline (PBS). The washed pellets were resuspended in PBS and diluted to achieve the desired number of fungi per milliliter. A portion of the inoculum was plated on SDA plates to determine the colony-forming units (CFU) per milliliter.
(§3) Swiss-Webster mice (Simonsen Laboratories, Gilroy, Calif.) were administered by intravenous injection a single inoculum (0.2 mL) containing as estimated 2.0×10^5 CFU of C. albicans. The day of inoculation was designated as study day 0. Beginning three days after injection, mice were treated intraperitoneally with vehicle alone or formulated test compound once daily for 5 consecutive days.
(§4) The mice were observed daily from study day 0 through study day 10 (3 days after the last dose). Mice found dead or euthanized in extremis were removed from the study without further processing. Surviving mice were euthanized by inhalation of CO2 on study day 10 and both kidneys from each mouse were removed. Each pair of removed kidneys was homogenized in 3 mL of ice-cold PBS containing 10% glycerol. A portion of each homogenate was used to determine log10 CFU per kidney using SDA plates (48 hours of incubation at 30° C.). Kidney log10 CFU data were analyzed using a t-test. The criterion for a statistically significant response was set at p<0.01.
(§5) For comparison, the results for AmB and AME are also provided. Efficacy was defined for individual animals as a greater than 2 log10 reduction in kidney CFU relative to the mean vehicle control value.

[4] = Two week range-finding toxicity study in mice; type: in vivo, CD-1 mice; details: both sexes, CD-1, mouse, in vivo, iv
Description: as §1, §2
Various polyene macrolide amide derivatives of the invention were evaluated to characterize their potential toxicity when administered subchronically by intravenous injection.
CD-1® mice (Charles River Laboratories, Portage, Mich.) were acclimated to laboratory conditions for at least 5 days before the start of dosing. During the acclimation period, the general condition of the mice was evaluated, and those considered healthy were used. The mice were randomly assigned to treatment groups using a stratified body weight regimen. Each treatment group consisted of 3 male and 3 female mice. The mice were housed in a room with a controlled environment and provided rodent chow and water ad libitum.
On the first day of dosing, the mice were approximately 7 to 9 weeks old and weighed 22 to 30 g. Doses were administered by intravenous injection once daily on study days 1 to 5 and 8 to 12. Dosages were selected based upon data from efficacy and toxicology studies, and ranged from 1.25 to 30 mg/kg/day. Clinical observations were recorded 0.5 hr after dosing on days 1, 3, 5, 8, 10, 12 and 15, and on any day a change was observed. Body weights were recorded prior to dosing and on study days 8 and 12, and on study day 15 at the completion of the in-life phase of the study.
Animals that were found in a moribund/deteriorating clinical state were euthanized (animal designated killed in extremis) by inhalation of CO2. The day of death for any animal found dead or killed in extremis was recorded. Any animal that died prematurely was removed from the study without further processing.
One day after completion of dosing (study day 16), all surviving mice were euthanized by inhalation of CO2. Their kidneys were preserved for histopathologic examination. The maximum no-observed-adverse-effect level (NOAEL) was determined on the basis of clinical and histopathologic findings. The values for AmB and AME are provided for comparison.

C. albicans [5] = assay: 7 day kidney bioburden evaluation in neutropenic mice challenged with C. albicans; type: in vivo, Swiss-Webster mice; details: Candida albicans, ip, 168 h, intraperitoneally once daily for 7 days, 50% of animals with 2 log10 reduction in kidney CFU
Description: as §1, §2
Various polyene macrolide amide derivatives of the invention were evaluated for their protective effect when administered intraperitoneally once daily for 7 days to neutropenic mice challenged with live C. albicans.
as §3, with “made neutropenic by intravenous administration of 5-fluorouracil (150 mg/kg) on study day −1. On study day 0, all mice received” for “administered”, “5.0×10^4” for “2.0×10^5”, “the day” for “three days”, “infection (on study day 1),” for “injection,”, “compound,” for “compound”, “7” for “5”
as §4, with “day 1” for “day 0”, “day 8 (1 day” for “day 10 (3 days”, “day 8” for “day 10”
as §5

| Compound | NLD acute mice [1] [mg/kg] | MIC (C. albicans [2]) [µg/mL] | ED50 (C. albicans [3]) [mg/kg] | NOAEL at 2 week ([4]; NOAEL 2 week mice clinical) [mg/kg] | NOAEL at 2 week ([4]; NOAEL 2 week mice histological) [mg/kg] | ED50 (C. albicans [5]) [mg/kg] |
| --- | --- | --- | --- | --- | --- | --- |
| CC1[C@H](C)OC(=O)C[C@H](O)C[C@H](O)CC[C@@H](O)[C@H](O)C[C@H](O)C[C@]2(O)C[C@H](O)C(C(=O)NCC(O)C(O)C(O)C(O)CO)C(C[C@@H](OC3O[C@H](C)[C@@H](O)[C@H](NC[C@@]4(O)OC[C@@H](O)[C@H](O)[C@@H]4O)[C@@H]3O)/C=C/C=C/C=C/C=C/C=C/C=C/C=C/[C@H](C)[C@H]1O)O2 (some centres unmarked) [Compound 110] | 10 | 1 (≈ 0.8 µM) | 15 |  |  |  |
| CC1[C@H](C)OC(=O)C[C@H](O)C[C@H](O)CC[C@@H](O)[C@H](O)C[C@H](O)C[C@]2(O)C[C@H](O)C(C(=O)NCCCN3CCOCC3)C(C[C@@H](OC3O[C@H](C)[C@@H](O)[C@H](NC[C@@]4(O)OC[C@@H](O)[C@@H](O)[C@@H]4O)[C@@H]3O)/C=C/C=C/C=C/C=C/C=C/C=C/C=C/[C@H](C)[C@H]1O)O2 (some centres unmarked) [Compound 104] | 20 | 2 (≈ 1.65 µM) | 9 | 10 | < 10 | 3.1 |
| CC1[C@H](C)OC(=O)C[C@H](O)C[C@H](O)CC[C@@H](O)[C@H](O)C[C@H](O)C[C@]2(O)C[C@H](O)C(C(=O)N3CCN(Cc4ccccc4)CC3)C(C[C@@H](OC3O[C@H](C)[C@@H](O)[C@H](NC[C@@]4(O)OC[C@@H](O)[C@H](O)[C@@H]4O)[C@@H]3O)/C=C/C=C/C=C/C=C/C=C/C=C/C=C/[C@H](C)[C@H]1O)O2 (some centres unmarked) [Compound 134] | 30 | 1 (≈ 0.804 µM) | > 30 |  |  |  |
| CC1[C@H](C)OC(=O)C[C@H](O)C[C@H](O)CC[C@@H](O)[C@H](O)C[C@H](O)C[C@]2(O)C[C@H](O)C(C(=O)NCCCN3CCOCC3)C(C[C@@H](OC3O[C@H](C)[C@@H](O)[C@H](NC[C@@]4(O)OC[C@@H](O)[C@H](O)[C@@H]4O)[C@@H]3O)/C=C/C=C/C=C/C=C/C=C/C=C/C=C/[C@H](C)[C@H]1O)O2 (some centres unmarked) [Compound 111] | 20 | 2.7 (≈ 2.23 µM) | 7 | < 7 | 7 |  |
| CCN1CCN(C(=O)C2C3C[C@@H](OC4O[C@H](C)[C@@H](O)[C@H](NC[C@@]5(O)OC[C@@H](O)[C@H](O)[C@@H]5O)[C@@H]4O)/C=C/C=C/C=C/C=C/C=C/C=C/C=C/[C@H](C)[C@@H](O)C(C)[C@H](C)OC(=O)C[C@H](O)C[C@H](O)CC[C@@H](O)[C@H](O)C[C@H](O)C[C@](O)(C[C@@H]2O)O3)CC1 (some centres unmarked) [Compound 133] | 15 |  | 4.1 | < 5 |  |  |
| CC1[C@H](C)OC(=O)C[C@H](O)C[C@H](O)CC[C@@H](O)[C@H](O)C[C@H](O)C[C@]2(O)C[C@H](O)C(C(=O)N3CCN(C)CC3)C(C[C@@H](OC3O[C@H](C)[C@@H](O)[C@H](NC[C@@]4(O)OC[C@@H](O)[C@H](O)[C@@H]4O)[C@@H]3O)/C=C/C=C/C=C/C=C/C=C/C=C/C=C/[C@H](C)[C@H]1O)O2 (some centres unmarked) [Compound 113] | 7.5 | 3.3 (≈ 2.82 µM) | 2 | > 5 | 1.25 |  |
| CC1[C@H](C)OC(=O)C[C@H](O)C[C@H](O)CC[C@@H](O)[C@H](O)C[C@H](O)C[C@]2(O)C[C@H](O)C(C(=O)NCCN3CCCCC3)C(C[C@@H](OC3O[C@H](C)[C@@H](O)[C@H](NC[C@@]4(O)OC[C@@H](O)[C@@H](O)[C@@H]4O)[C@@H]3O)/C=C/C=C/C=C/C=C/C=C/C=C/C=C/[C@H](C)[C@H]1O)O2 (some centres unmarked) [Compound 107] | >40 | 2 (≈ 1.67 µM) | 28 |  |  |  |
| CC1[C@H](C)OC(=O)C[C@H](O)C[C@H](O)CC[C@@H](O)[C@H](O)C[C@H](O)C[C@]2(O)C[C@H](O)C(C(=O)N3CCN(C)CC3)C(C[C@@H](OC3O[C@H](C)[C@@H](O)[C@H](NC[C@@]4(O)OC[C@@H](O)[C@@H](O)[C@@H]4O)[C@@H]3O)/C=C/C=C/C=C/C=C/C=C/C=C/C=C/[C@H](C)[C@H]1O)O2 (some centres unmarked) [Compound 106] | <15 | 2 (≈ 1.71 µM) | 3 | 3 | 6 |  |
| CC1[C@H](C)OC(=O)C[C@H](O)C[C@H](O)CC[C@@H](O)[C@H](O)C[C@H](O)C[C@]2(O)C[C@H](O)C(C(=O)NCC(O)C(O)C(O)C(O)CO)C(C[C@@H](OC3O[C@H](C)[C@@H](O)[C@H](NC[C@@]4(O)OC[C@@H](O)[C@@H](O)[C@@H]4O)[C@@H]3O)/C=C/C=C/C=C/C=C/C=C/C=C/C=C/[C@H](C)[C@H]1O)O2 (some centres unmarked) [Compound 103] | 10 | 1.1 (≈ 0.88 µM) | 15 |  |  |  |
| CC1[C@H](C)OC(=O)C[C@H](O)C[C@H](O)CC[C@@H](O)[C@H](O)C[C@H](O)C[C@]2(O)C[C@H](O)C(C(=O)N3CCN(CCO)CC3)C(C[C@@H](OC3O[C@H](C)[C@@H](O)[C@H](NC[C@@]4(O)OC[C@@H](O)[C@H](O)[C@@H]4O)[C@@H]3O)/C=C/C=C/C=C/C=C/C=C/C=C/C=C/[C@H](C)[C@H]1O)O2 (some centres unmarked) [Compound 135] | 10 | 6.3 (≈ 5.26 µM) | 1.6 | 1.25 | > 5 |  |
| CC1[C@H](C)OC(=O)C[C@H](O)C[C@H](O)CC[C@@H](O)[C@H](O)C[C@H](O)C[C@]2(O)C[C@H](O)C(C(=O)N3CCN(c4ccccc4)CC3)C(C[C@@H](OC3O[C@H](C)[C@@H](O)[C@H](NC[C@@]4(O)OC[C@@H](O)[C@H](O)[C@@H]4O)[C@@H]3O)/C=C/C=C/C=C/C=C/C=C/C=C/C=C/[C@H](C)[C@H]1O)O2 (some centres unmarked) [Compound 136] | >15 | 0.4 (≈ 0.325 µM) | 40.2 |  |  |  |
